These results are taken from US12570638B2, “Fused imidazole derivatives as AHR antagonists” (Sail Biomedicines, Inc., priority 2020, dated 2026).

In brackets after ≈: the same amount, converted by molar mass. Where two headings read alike, the source gives them in different places. A value given as a limit tells only on which side of the number the result lay.

One data set addresses T1, AHR (Homo sapiens, UniProt P35869).
T1 construct: other cell line with a DRE-luciferase reporter stably transfected; endogenous in cells; host or cells: Human HepG2 liver carcinoma AhR-Lucia reporter cells
T1 sequence (P35869 11-848): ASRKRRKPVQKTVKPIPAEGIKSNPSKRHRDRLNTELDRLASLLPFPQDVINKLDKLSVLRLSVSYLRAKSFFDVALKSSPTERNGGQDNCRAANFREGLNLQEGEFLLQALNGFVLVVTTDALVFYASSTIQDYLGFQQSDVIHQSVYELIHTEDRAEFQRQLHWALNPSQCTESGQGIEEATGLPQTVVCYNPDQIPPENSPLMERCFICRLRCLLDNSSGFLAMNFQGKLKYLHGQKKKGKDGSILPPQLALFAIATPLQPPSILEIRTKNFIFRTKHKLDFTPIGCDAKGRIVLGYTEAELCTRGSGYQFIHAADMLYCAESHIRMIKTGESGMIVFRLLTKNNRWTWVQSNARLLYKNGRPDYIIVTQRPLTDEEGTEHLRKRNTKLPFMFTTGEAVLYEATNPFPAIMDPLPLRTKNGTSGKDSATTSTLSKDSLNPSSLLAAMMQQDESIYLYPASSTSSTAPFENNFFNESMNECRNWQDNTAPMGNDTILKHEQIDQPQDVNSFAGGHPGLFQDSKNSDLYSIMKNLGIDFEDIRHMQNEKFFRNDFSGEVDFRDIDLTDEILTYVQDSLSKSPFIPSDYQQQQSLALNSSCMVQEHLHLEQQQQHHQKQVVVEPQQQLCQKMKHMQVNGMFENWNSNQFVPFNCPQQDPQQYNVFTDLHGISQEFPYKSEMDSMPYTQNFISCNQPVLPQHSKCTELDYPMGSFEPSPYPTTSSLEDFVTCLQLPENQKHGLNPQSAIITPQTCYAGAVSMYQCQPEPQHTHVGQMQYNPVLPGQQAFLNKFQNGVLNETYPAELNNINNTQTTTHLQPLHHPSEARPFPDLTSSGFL
The experiment in a line: DRE-Luciferase Reporter Assay (HepG2 AhR-Lucia reporter cells). It is filed as cell-based. The settings on record: luciferase activity with AHR activating ligand at EC50, read-out: HepG2-Luc IC50. From the text:
AHR binds to Dioxin Responsive Elements (DRE) upstream of genes that it activates. One measure of AHR activity is activation of a reporter gene, such as luciferase, downstream of one or multiple DRE elements. Luciferase activity will reflect activation and inhibition of AHR in the cells expressing his reporter. 20000 Human HepG2 liver carcinoma—AhR-Lucia reporter cells or Human HT29 colon adenocarcinoma—AhR reporter cells or other cell line with a DRE-luciferase reporter stably transfected were plated in Eagle's Minimal Essential Medium, 10% heat-inactivated FBS, 1× non-essential amino acids Pen-Strep (10,000 U/mL) and Normocin (100 ug/mL) in plates (96-well, 384-well or other plates) and incubated overnight at 37° C. in a CO2 incubator and treated with and without AhR antagonists at a log dilution starting at 100 uM.
After 1 hr that cells were plated an AHR activating ligand, such as TCDD, kynurenine, ITE (2-(1H-indole-3-ylcarbonyl)-4-thiazolecarboxylic methyl ester), VAF347, BNF (beta-naphthoflavone), FICZ (6-formylindolo(3,2-b) carbazole) or other AHR ligands at their specific EC50 concentration, were added to the cells with or without AHR antagonist.
Cells were incubated for 24 or 48 hours or another time point and then, supernatant was analyzed for determination of luciferase activity as a read-out of the AHR activation or inhibition. Luciferase was measured with the commercial kit QUANTI-Luc™ assay solution kit from Invivogen following the manufacturer's instructions.
The level of luciferase with only agonist ligand added was the maximum signal while the luciferase with […] was the minimum signal. IC50 values were determined as the concentration which inhibits half of the luciferase activity.
In general terms: Reporter assays use an easily measured gene product as a stand-in for the process of interest.

A short description of data set [1]: Solubility Determination Assay (PBS, LC-MS/MS). Type of data set: physicochemical. The settings on record: aqueous buffer, kinetic from dmso stock. How it is done: The stock solutions of test compounds and control compound progesterone were prepared in DMSO at the concentrations of 10 mM. 15 μL of stock solution (10 mM) of each sample was placed in order into their proper 96-well rack. 485 μL of PBS pH 1.6 and pH 7.4 were added into each vial of the cap-less Solubility Sample plate. The assay was performed in singlet. One stir stick was added to each vial and then the vial was sealed using a molded PTFE/Silicone plug. […] After completion of the 2 hours, plugs were removed and the stir sticks were removed using a big magnet. The samples from the Solubility Sample plate were transferred into the filter plate. Using the Vacuum Manifold, all the samples were filtered. An aliquot of 5 μL was taken from the filtrate followed by addition of 495 μL of a mixture of H2O and acetonitrile containing internal standard (1:1). A certain proportion of ultrapure water was used to dilute the diluent according to the peak shape. The dilution factor was changed according to the solubility values and the LC-MS signal response.
From the 10 mM DMSO STD plate, 6 μL was transferred into the remaining empty plate, and then 194 μL of DMSO were added to that plate to have a STD concentration of 300 μM. From the 300 μM DMSO STD plate, 5 μL were transferred into the remaining empty plate, and then 495 μL of a mixture of H2O and acetonitrile containing internal standard (1:1) were added to that plate to have a final STD concentration of 3 μM. A certain proportion of ultrapure water was used to dilute the diluent according to the peak shape. The concentrations of the standard samples were changed according to the LC-MS signal response.
The plate was placed into the well plate autosampler. The samples were evaluated by LC-MS/MS analysis.
All calculations were carried out using Microsoft Excel.
The filtrate was analyzed and quantified against a standard of known concentration using LC coupled with mass spectral peak identification and quantitation. Solubility values of the test compound and control compound were calculated as follows: […]
Any value of the compounds that was not within the specified limits was rejected and the experiment was repeated.
“+++” indicates a solubility value equal to or greater than 10 μM, “++” indicates a solubility value between 1 and 10 μM, and “+” indicates a solubility value less than 1 μM.

Setting [2] is: PBS pH 1.6, 25° C., read-out: Aq. Solubility at pH = 1.6.
The mark [3] stands for this setting: PBS pH 7.4, 25° C., read-out: Aq. Solubility at pH = 7.4.

A word on the IC50: it is the point on the concentration scale where inhibition reaches its midpoint. One may read the solubility as how much of the substance goes into solution per volume. `Cn1nccc1C(=O)Nc1ccc2nc(-c3ccccc3C(F)(F)F)[nH]c2c1` [A, 1-methyl-N-(2-(2-(trifluoromethyl)phenyl)-1H-benzo[d]imidazol-6-yl)-1H-pyrazole-5-carboxamide]: the IC50 on AHR fell in the range of 100 to 500 nM. Moreover, the solubility at 2 h in data set [1] (setting [2]) and in data set [1] (setting [3]) was greater than 10 µM throughout.

For the compound `Cn1ncnc1C(=O)Nc1ccc2nc(-c3ccccc3C(F)(F)F)[nH]c2c1` [Compound H, 1-methyl-N-(2-(2-(trifluoromethyl)phenyl)-1H-benzo[d]imidazol-6-yl)-1H-1,2,4-triazole-5-carboxamide], the IC50 at AHR was less than 100 nM. In addition, the solubility at 2 h in data set [1] (setting [2]) was greater than 10 µM; in data set [1] (setting [3]), 1 to 10 µM (≈ 0.386 to 3.86 µg/mL).
